The results in this text go back to patent US20230052152A1, “COMPOUNDS FOR TREATMENT OF ALZHEIMER'S DISEASE” (SULFATEQ B.V., priority 2019, published 2023).

The structures appear in SMILES notation. “Also recorded” adds a separate entry of the source.

For data set [1], the system named is SH-SY5Y cells. Briefly: Glutamate-induced excitotoxicity, differentiated SH-SY5Y neuronal-like cells, Neutral Red viability. Particulars: Homo sapiens, 60 mM glutamate 24 h; for EC50: 30 min pre-incubation, Neutral Red viability; for Emax: maximal restoration of viability. The class given is cell-based. The method, then: (§1) Human SH-SY5Y neuroblastoma cells (ATCC #CRL-2266) were maintained in DMEM medium containing 10% fetal bovine serum and 1% Penicillin-Streptomycin solution (#P4333, Sigma-Aldrich, St. Louis, Mo.) and passaged when the cultures reach a confluency of 70%. Prior to experiments, SH-SY5Y cells were differentiated by serum reduction (to 1%) and stimulation with 10 μM retinoic acid (#R7882, Sigma-Aldrich, St. Louis, Mo.) for 72 hours. Differentiated SH-SY5Y cells were seeded at 0.6·10^5 cells/cm^2 for all experiments.
(§2) Differentiated SH-SY5Y cells were pre-incubated with SUL compounds (dose range 8·10^−4 to 1·10^−8 M) under standard culture conditions for 30 min and then stimulated with either 1-glutamate (60 mM; #12843-0, Sigma-Aldrich, St. Louis, Mo.) or dopamine (100 μM; #H8502, Sigma, St. Louis, Mo.) for an additional 24 h. Neutral Red Assay Solution (#N2889, Sigma-Aldrich, St. Louis, Mo.) was added to the cultures at a 10% (v/v) concentration during the final 4 hours of culture. Cells were washed with warm PBS and Neutral red solubilized in acid ethanol (1% acetic acid in 50% EtOH). Absorbances were recorded at 540 nm in a CLARIOStar Plus plate reader (BMG Labtech, Germany).
(§3) All experiments were performed in triplicate per condition and averaged. Data obtained from two individual experiments were used for evaluation in GraphPad Prism 8.0 (GraphPad Software Inc, Ca). 4 parameter non-linear regression was used to determine the efficacy and potency of SUL compounds to reduce the excitotoxicity induced by either 1-glutamate or dopamine.
SH-SY5Y neuroblastoma cells were differentiated into neuronal-like cells according to established protocols and stimulated with 60 mM glutamate to induce excitotoxicity.

Data set [2] deals with SH-SY5Y cells. The description is as above. The format is cell-based, human. Particulars: 60 mM glutamate, 10^−3 to 10^−8 M.
In data set [3] the test system is SH-SY5Y cells. Briefly: Dopamine-induced excitotoxicity, differentiated SH-SY5Y neuronal-like cells, Neutral Red viability. Particulars: Homo sapiens, dopamine 24 h; for EC50: 30 min pre-incubation, Neutral Red viability; for Emax: maximal restoration of viability. The class given is cell-based. The method, then: as §1, §2, §3
Differentiated SH-SY5Y neuroblastoma cells were stimulated with 150 μM dopamine to induce excitotoxicity.

Data set [4] relates to prostaglandin synthases and the thromboxane synthase A. Briefly: Hippocampal protein expression of prostaglandin synthases and thromboxane synthase A. Particulars: hippocampal tissue, wildtype or APP/PS1 mice. The class given is in vivo, mouse. An excerpt: Hippocampal tissue from wildtype and APP/PS1 mice was examined for the protein expression of prostaglandin synthases and the thromboxane synthase A. Peptides resembling the prostaglandin synthase PTGS1, PTGES2, PTGES3, and PTGFS were found in the hippocampal tissue of both wildtype and APP/PS1 mice (Table 4). No protein fragments of PTGS2, PTGDS, PTGES1, PTGIS and TXA could be found.

The nature of data set [5]: Bioavailability in brain. The class given is in vivo.
The subject of data set [6] is WT and APP/PS1 mice. Briefly: Fear conditioning (hippocampal dependent context memory test), freezing. The class given is in vivo, mouse. Particulars: chronic oral via food 2.5 to 6 moa, versus vehicle food. An excerpt: (§4) The APP/PS1 mouse model is a widely used A-beta pathology model for Alzheimer's disease (AD) (1 of the 2 main neuropathological hallmarks of AD). These mice contain human transgenes for APP (Swedish mutation) and PSEN1 (L166P mutation), which will lead to pathological amyloid deposition in the brain and impairments in hippocampal dependent memory and Long Term Potentiation (LTP) starting at ˜3 months of age (3 moa).
(§5) The effectiveness of SUL-138 ((6-hydroxy-2,5,7,8-tetramethylchroman-2-yl)(4-(2-hydroxyethyl)piperazin-1-yl)methanone) in relieving/preventing common pathology in the APP/PS1 model was tested. The effect on memory was tested in a hippocampal dependent context test (Fear conditioning (FC)) and synaptic connectivity was tested via electrophysiological LTP (Long-term potentiation) measurements. Both are impaired in this mouse model under basal conditions. In addition, Phenotypers (Sylics) were used to exclude that SUL-138 induces atypical behavior after chronic oral treatment.
Wild type (WT) and APP/PS1 mice were each divided in 2 groups, either receiving vehicle or SUL-138 via their food. Group size amounted 12 animals. […]
FC: mice were exposed to a context for 2 min after which they received a 0.7 mA footshock. […] 24 h later mice were put in the same context and freezing levels were measured for 2 min.
Memory was assessed at 6 moa by measuring freezing following context acquisition.

Data set [7] is described as follows: Overall welfare and body weight during chronic oral treatment. Particulars: vehicle versus SUL-138 treated animals. The format is in vivo, mouse. The method, then:
(§6) Wild type (WT) and APP/PS1 mice were each divided in 2 groups, either receiving vehicle or SUL-138 via their food. Group size amounted 12 animals. Based on mouse weight of ˜30 g, food intake of ˜5 g/day and desired oral intake of 30 mg/day/kg, food pellets were sprayed with SUL-138 in water with 0.0145% ethanol at 1 g SUL-138 in 5 kg food. Vehicle food was prepared by spraying with the same volume of 0.0145% ethanol containing water.
(§7) Mice were treated chronically between 2.5 moa (pre-pathology/memory deficit) and 6 moa (age at which clear neuropathology and memory deficits occur) prior to testing.

For data set [8], the system named is WT and APP/PS1 mice. Briefly: Phenotypers spontaneous behavior after chronic oral treatment. The class given is in vivo, mouse. Particulars: 3 days in phenotypers. The method, then: as §5, §6
Phenotypers (provided by Sylics, Amsterdam, Netherlands): Mice were housed in the phenotypers for 3 days during which spontaneous behavior: activity, dark/light, habituation, kinematics, light dark phase transition pattern and sheltering were measured.

Data set [9] concerns WT and APP/PS1 mice. Briefly: Long-term potentiation (LTP) in acute hippocampal slices after chronic oral treatment. The class given is in vivo, mouse. Particulars: 3×100 Hz stimulation, p<0.05.
Description: as §4, §6, §7
LTP: Acute coronal hippocampal slices were kept in artificial CSF and LTP was measured after 3×100 Hz stimulation.
Between 8-14 hippocampal slices per group (2A: WT ctrl, WT SUL-138, 2B: APP ctrl, APP SUL-138) received LTP evoked by 3×100 Hz stimulation (tetanus) of 1 sec separated by 20 sec. The slope was measured for 60 min. LTP was expressed as a percentage of baseline. […]

Data set [10] has as its system APP/PS1 mice. Briefly: Plaque load (anti-Amyloid beta 6E10 staining of hippocampal slices). Particulars: three months oral, versus vehicle. The class given is in vivo, mouse. The method, then: APP/PS1 (n=10) and wildtype mice (WT, n=10) mice were treated, either with vehicle or SUL-138. Mice were treated for 3 months starting at 3 months of age with either SUL-138 or vehicle treated food pellets. The mice were sacrificed at 6 months of age, the age at which (among others) hippocampal dependent memory impairment and apparent plaque load are expected.
4% PFA perfused brains, stored on sucrose, were sliced at […] using a cryostat (−20° C.; Leica). Hippocampal slices (n=2/animal; 5 animals/group) were washed 3×10 min with 1× PBS, and then blocked for 1 h in Blocking solution (10 mL 1× PBS+500 μL normal Goat Serum+0.250 g Bovine Serum Albumin+20 μL Triton-100). The slices were incubated overnight with anti-Amyloid beta (6E10) (ITK Diagnostics, 1:400), washed 3×10 min with 1× PBS and then incubated with secondary Goat anti-mouse Alexa fluorescent 488 antibody (Sigma-Aldrich, 1:250) for 2 h. Then slices were washed 3×10 min with 1× PBS and mounted on slides.
Slices were imaged using the Zeiss Cell Discover 7 high content microscope with LSM900 confocal head. Using Fiji, both hippocampi were selected separately for 5 animals per group (yellow line in FIG. 3A) and number and size of plaques were measured (FIG. 3B, C). The mean number of plaques and plaque size per animal were used for statistical analyses in GraphPad 8 using Student's t-test, one-sided.

In data set [1], `Cc1c(C)c2c(c(C)c1O)CCC(C)(C(=O)O)O2` (centres unmarked) [SUL-11, 6-hydroxy-2,5,7,8-tetramethylchroman-2-carboxylic acid, reference compound] displayed an EC50 of 4620 nM and an Emax of 76.7%. For the same compound, the “Effectiveness in increasing viability of glutamate-challenged cells versus the other SUL-compounds” value in [2] is reported as “clearly less effective”. In data set [3], the EC50 was 8350 nM and the Emax came to 79.5%.
`Cc1c(C)c2c(c(C)c1O)CC[C@@](C)(C(=O)N[C@@H]1CCCNC1)O2` [SUL-13, (S)-6-hydroxy-2,5,7,8-tetramethyl-N-((R)-piperidin-3-yl)chromane-2-carboxamide]: the figures for the EC50 in [1] and in data set [3] were 3820 nM and 324 nM, respectively. The figures for the Emax in data set [1] and in [3] were 100% and 91.9%, respectively.
Consider `Cc1c(C)c2c(c(C)c1O)CC[C@@](C)(C(=O)N1CCN(CCO)CC1)O2` [SUL-138, (S)-(6-hydroxy-2,5,7,8-tetramethylchroman-2-yl)(4-(2-hydroxyethyl)piperazin-1-yl)methanone], for which, in data set [4], the “Protein expression of prostaglandin synthesizing enzymes” value is reported as “did not alter”. Also, in data set [5], the Bioavailability in brain result was “appears to be high”. Also, the EC50 in data set [1] turned out to be 1420 nM; in data set [3], 660 nM. Also, the Emax in [1] and in data set [3] was 100% in each case. Moreover, the “Freezing levels (memory)” value is on record as “increased; also recorded: restored to WT levels” in data set [6] (APP/PS1 mice) and “increased” in data set [6] (WT mice). In data set [7], the Overall welfare entry is recorded as “did not show differences”. The “Spontaneous behavior (activity, dark/light, habituation, kinematics, light dark phase transition pattern, sheltering)” value in [8] is reported as “did not induce differences”. Also, the “LTP maintenance (min 30-60)” value in data set [9] (APP mice) is “significantly (p<0.05) higher; also recorded: restore in APP/PS1 mice memory and LTP to control levels”; in [9] (WT mice), “significantly (p<0.05) higher”. In addition, the Plaque size entry in [10] (p=0.0021) was “reduced”. Moreover, the Number of plaques result in data set [10] (p=0.0138) was “reduced”.
With `Cc1c(C)c(O)c(CC[C@@](C)(O)C(=O)N2CCN(CCO)CC2)c(C)c1O` [SUL-138M2, 4-(2,5-dihydroxy-3,4,6-trimethylphenyl)-2-hydroxy-1-(4-(2-hydroxyethyl)piperazin-1-yl)-2-methylbutan-1-one], the EC50 came out at 4430 nM in [1] and 1690 nM in data set [3]. Moreover, the Emax in data set [1] was 100%; in data set [3], 94.7%.
The like results for `Cc1c(C)c2c(c(C)c1O)CC[C@](C)(C(=O)N1CCNCC1)O2` [SUL-150, (R)-(6-hydroxy-2,5,7,8-tetramethylchroman-2-yl)(piperazin-1-yl)methanone] were, in that order, 122 nM, 55.5 nM, 100% and 100%.
The like results for `Cc1c(C)c2c(c(C)c1O)CC[C@@](C)(C(=O)N1CCNCC1)O2` [SUL-151, (S)-(6-hydroxy-2,5,7,8-tetramethylchroman-2-yl)(piperazin-1-yl)methanone] were, in that order, 96.1 nM, 69.2 nM, 100% and 100%.

By EC50 is commonly meant the concentration giving half of the maximal effect. Lower therefore signals higher potency in that assay.
